{
  "source": "ChEMBL document CHEMBL4000165",
  "about": "“Chemosensitizing effect of Paris Saponin I on Camptothecin and 10-hydroxycamptothecin in lung cancer cells via p38 MAPK, ERK, and Akt signaling pathways” (Eur J Med Chem, 2017)",
  "key": {"NCI-H1299 [1]": {"system": "NCI-H1299", "test": "Cytotoxicity against human NCI-H1299 cells assessed as reduction in cell viability after 48 hrs by MTT assay", "format": "functional, cell-based", "settings": "NCI-H1299, 48 h"}, "NCI-H520 [2]": {"system": "NCI-H520", "test": "Cytotoxicity against human NCI-H520 cells assessed as reduction in cell viability after 48 hrs by MTT assay", "format": "functional, cell-based", "settings": "NCI-H520, 48 h"}, "NCI-H446 [3]": {"system": "NCI-H446", "test": "Cytotoxicity against human NCI-H446 cells assessed as reduction in cell viability after 48 hrs by MTT assay", "format": "functional, cell-based", "settings": "NCI-H446, 48 h"}, "NCI-H446 [4]": {"system": "NCI-H446", "test": "Cytotoxicity against human NCI-H446 cells assessed as reduction in cell viability by measuring combinantion index at 0.3 to 0.6 uM after 48 hrs in presence of CPT by MTT assay", "format": "functional"}, "NCI-H520 [5]": {"system": "NCI-H520", "test": "Cytotoxicity against human NCI-H520 cells assessed as reduction in cell viability at 0.3 to 0.6 uM after 48 hrs in presence of HCPT by MTT assay", "format": "functional, cell-based"}, "NCI-H1299 [6]": {"system": "NCI-H1299", "test": "Induction of apoptosis in human NCI-H1299 cells at 0.3 uM up to 20 mins in presence of CPT by acridine orange/ ethidium bromide staining based fluorescence microscopic method relative to control", "format": "functional"}, "NCI-H1299 [7]": {"system": "NCI-H1299", "test": "Induction of apoptosis in human NCI-H1299 cells at 0.3 uM up to 20 mins in presence of HCPT by acridine orange/ ethidium bromide staining based fluorescence microscopic method relative to control", "format": "functional"}, "NCI-H460 [8]": {"system": "NCI-H460", "test": "Induction of apoptosis in human NCI-H460 cells at 0.6 uM up to 20 mins in presence of CPT by acridine orange/ ethidium bromide staining based fluorescence microscopic method relative to control", "format": "functional"}, "NCI-H1299 [9]": {"system": "NCI-H1299", "test": "Induction of apoptosis in human NCI-H1299 cells at 0.3 uM after 24 to 48 hrs by Annexin-V FITC/propidium iodide staining based flow cytometry", "format": "functional, cell-based"}, "NCI-H460 [10]": {"system": "NCI-H460", "test": "Induction of apoptosis in human NCI-H460 cells at 0.6 uM after 24 to 48 hrs by Annexin-V FITC/propidium iodide staining based flow cytometry", "format": "functional, cell-based"}, "NCI-H446 [11]": {"system": "NCI-H446", "test": "Induction of apoptosis in human NCI-H446 cells at 0.6 uM after 24 to 48 hrs by Annexin-V FITC/propidium iodide staining based flow cytometry", "format": "functional, cell-based"}, "NCI-H1299 [12]": {"system": "NCI-H1299", "test": "Induction of apoptosis in human NCI-H1299 cells assessed as pro-apoptotic cells at 0.3 uM after 48 hrs in presence of CPT by Annexin-V FITC/propidium iodide staining based flow cytometry", "format": "functional"}, "NCI-H446 [13]": {"system": "NCI-H446", "test": "Induction of apoptosis in human NCI-H446 cells at 0.6 uM in presence of CPT by Annexin-V FITC/propidium iodide staining based flow cytometry", "format": "functional, cell-based", "settings": "TDE = time-dependent effect"}, "NCI-H460 [14]": {"system": "NCI-H460", "test": "Induction of apoptosis in human NCI-H460 cells at 0.6 uM in presence of HCPT by Annexin-V FITC/propidium iodide staining based flow cytometry", "format": "functional, cell-based", "settings": "TDE = time-dependent effect"}, "NCI-H1299 [15]": {"system": "NCI-H1299", "test": "Induction of apoptosis in human NCI-H1299 cells assessed as activation of caspase-3/7 at 0.3 uM after 48 hrs by luciferase reporter gene assay", "format": "functional, cell-based"}, "NCI-H446 [16]": {"system": "NCI-H446", "test": "Induction of apoptosis in human NCI-H446 cells assessed as activation of caspase-3/7 at 0.6 uM after 48 hrs by luciferase reporter gene assay", "format": "functional, cell-based"}, "NCI-H460 [17]": {"system": "NCI-H460", "test": "Induction of apoptosis in human NCI-H460 cells assessed as activation of caspase-3/7 at 0.6 uM after 48 hrs by luciferase reporter gene assay", "format": "functional, cell-based"}, "NCI-H1299 [18]": {"system": "NCI-H1299", "test": "Induction of apoptosis in human NCI-H1299 cells assessed as activation of caspase-3/7 at 0.3 uM after 48 hrs in presence of CPT by luciferase reporter gene assay", "format": "functional, cell-based"}, "NCI-H446 [19]": {"system": "NCI-H446", "test": "Induction of apoptosis in human NCI-H446 cells assessed as activation of caspase-3/7 at 0.6 uM after 48 hrs in presence of HCPT by luciferase reporter gene assay", "format": "functional, cell-based"}, "NCI-H460 [20]": {"system": "NCI-H460", "test": "Induction of apoptosis in human NCI-H460 cells assessed as activation of caspase-3/7 at 0.6 uM after 48 hrs in presence of HCPT by luciferase reporter gene assay", "format": "functional, cell-based"}, "NCI-H446 [21]": {"system": "NCI-H446", "test": "Induction of apoptosis in human NCI-H446 cells assessed as increase in caspase-9 expression at 0.6 uM in presence of CPT by Western blot method", "format": "functional, cell-based"}, "NCI-H460 [22]": {"system": "NCI-H460", "test": "Induction of apoptosis in human NCI-H460 cells assessed as increase in caspase-9 expression at 0.6 uM in presence of HCPT by Western blot method", "format": "functional, cell-based"}, "NCI-H446 [23]": {"system": "NCI-H446", "test": "Induction of apoptosis in human NCI-H446 cells assessed as increase in cleaved PARP expression at 0.6 uM in presence of CPT by Western blot method", "format": "functional, cell-based"}, "NCI-H446 [24]": {"system": "NCI-H446", "test": "Induction of apoptosis in human NCI-H446 cells assessed as increase in Bax expression at 0.6 uM in presence of CPT by Western blot method", "format": "functional, cell-based"}, "NCI-H446 [25]": {"system": "NCI-H446", "test": "Induction of apoptosis in human NCI-H446 cells assessed as downregulation of Bcl-XL expression at 0.6 uM in presence of CPT by Western blot method", "format": "functional, cell-based"}, "NCI-H1299 [26]": {"system": "NCI-H1299", "test": "Decrease in p38 MAPK protein expression in human NCI-H1299 cells at 0.3 uM in presence of HCPT by Western blot method", "format": "functional, cell-based"}, "[27]": {"target": "T1, MAP kinase p38 (Homo sapiens) (UniProt O15264+Q15759+Q16539+P53778)", "test": "Increase in p38 MAPK phosphorylation in human NCI-H1299 cells at 0.3 uM in presence of HCPT by Western blot method", "format": "cell-based"}, "Homo sapiens [28]": {"species_on_record": "Homo sapiens", "test": "Decrease in Akt phosphorylation in human NCI-H460 cells at 0.6 uM in presence of HCPT by Western blot method", "format": "cell-based"}, "[29]": {"target": "T2, Mitogen-activated protein kinase; ERK1/ERK2 (Homo sapiens) (UniProt P27361+P28482)", "T2 sequence (P27361 whole entry, looked up)": "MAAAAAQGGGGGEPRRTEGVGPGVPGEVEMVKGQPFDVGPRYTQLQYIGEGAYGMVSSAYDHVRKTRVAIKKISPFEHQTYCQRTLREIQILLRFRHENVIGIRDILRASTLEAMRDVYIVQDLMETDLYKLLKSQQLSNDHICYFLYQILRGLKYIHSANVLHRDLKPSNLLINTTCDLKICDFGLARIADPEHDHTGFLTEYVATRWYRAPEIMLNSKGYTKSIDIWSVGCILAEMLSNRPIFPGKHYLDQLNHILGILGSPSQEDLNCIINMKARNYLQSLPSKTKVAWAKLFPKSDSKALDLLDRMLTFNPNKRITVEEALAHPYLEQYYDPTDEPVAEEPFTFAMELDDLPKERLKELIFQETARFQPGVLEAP", "T2 sequence (P28482 whole entry, looked up)": "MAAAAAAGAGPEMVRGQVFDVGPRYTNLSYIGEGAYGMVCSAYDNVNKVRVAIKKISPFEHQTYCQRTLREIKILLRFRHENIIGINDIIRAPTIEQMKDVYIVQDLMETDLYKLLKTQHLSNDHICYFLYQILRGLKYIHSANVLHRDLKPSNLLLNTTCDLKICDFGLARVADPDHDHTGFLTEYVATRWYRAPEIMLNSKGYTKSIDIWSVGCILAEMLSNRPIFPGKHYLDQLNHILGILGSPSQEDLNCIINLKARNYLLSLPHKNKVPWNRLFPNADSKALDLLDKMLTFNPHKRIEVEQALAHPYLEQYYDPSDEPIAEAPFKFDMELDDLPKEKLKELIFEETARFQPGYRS", "test": "Decrease in ERK1/2 phosphorylation in human NCI-H460 cells at 0.6 uM in presence of HCPT by Western blot method", "format": "cell-based"}, "[30]": {"target": "T1, MAP kinase p38 (Homo sapiens)", "test": "Increase in p38 MAPK phosphorylation in human NCI-H460 cells at 0.6 uM in presence of CPT by Western blot method", "format": "cell-based"}, "[31]": {"target": "T1, MAP kinase p38 (Homo sapiens)", "test": "Increase in p38 MAPK phosphorylation in human NCI-H460 cells at 0.6 uM in presence of HCPT by Western blot method", "format": "cell-based"}, "[32]": {"target": "c-Jun N-terminal kinase, JNK (Homo sapiens) (UniProt P45983+P53779+P45984)", "test": "Increase in JNK phosphorylation in human NCI-H460 cells at 0.6 uM in presence of CPT by Western blot method", "format": "cell-based"}, "Homo sapiens [33]": {"species_on_record": "Homo sapiens", "test": "Effect on Akt phosphorylation in human NCI-H446 cells at 0.6 uM in presence of HCPT by Western blot method", "format": "cell-based"}, "[34]": {"target": "T2, Mitogen-activated protein kinase; ERK1/ERK2 (Homo sapiens)", "test": "Effect on ERK1/2 phosphorylation in human NCI-H446 cells at 0.6 uM in presence of CPT by Western blot method", "format": "cell-based"}, "NCI-H446 [35]": {"system": "NCI-H446", "test": "Effect on Akt protein expression in human NCI-H446 cells at 0.6 uM in presence of HCPT by Western blot method", "format": "functional, cell-based"}, "NCI-H446 [36]": {"system": "NCI-H446", "test": "Effect on p38 MAPK protein expression in human NCI-H446 cells at 0.6 uM in presence of HCPT by Western blot method", "format": "functional, cell-based"}},
  "note": "pIC50: −log10 of the molar value. The source made the active and inactive calls. The calls are words filed in the database; no cut-off is given here.",
  "data": [
    {"compound": "C[C@@H]1CC[C@@]2(OC1)O[C@H]1C[C@H]3[C@@H]4CC=C5C[C@@H](O[C@@H]6O[C@H](CO)[C@@H](O[C@@H]7O[C@@H](CO)[C@H](O)[C@H]7O)[C@H](O)[C@H]6O[C@@H]6O[C@@H](C)[C@H](O)[C@@H](O)[C@H]6O)CC[C@]5(C)[C@H]4CC[C@]3(C)[C@H]1[C@@H]2C", "values": [
      {"measurement": "pIC50", "setting": "NCI-H1299 [1]", "result": "> 6.00"},
      {"measurement": "pIC50", "setting": "NCI-H520 [2]", "result": "> 6.00"},
      {"measurement": "pIC50", "setting": "NCI-H446 [3]", "result": "> 6.00"},
      {"measurement": "CI", "setting": "NCI-H446 [4]", "result": "<1"},
      {"measurement": "Activity", "setting": "NCI-H520 [5]", "result": "Active"},
      {"measurement": "fold change (FC)", "setting": "NCI-H1299 [6]", "result": 2},
      {"measurement": "fold change (FC)", "setting": "NCI-H1299 [7]", "result": 2},
      {"measurement": "fold change (FC)", "setting": "NCI-H460 [8]", "result": 2},
      {"measurement": "Activity", "setting": "NCI-H1299 [9]", "result": "Active"},
      {"measurement": "Activity", "setting": "NCI-H460 [10]", "result": "Active"},
      {"measurement": "Activity", "setting": "NCI-H446 [11]", "result": "Active"},
      {"measurement": "Activity", "setting": "NCI-H1299 [12]", "result": 60, "unit": "%"},
      {"measurement": "Activity", "setting": "NCI-H446 [13]", "result": "Tde"},
      {"measurement": "Activity", "setting": "NCI-H460 [14]", "result": "Tde"},
      {"measurement": "Activity", "setting": "NCI-H1299 [15]", "result": "inactive"},
      {"measurement": "Activity", "setting": "NCI-H446 [16]", "result": "inactive"},
      {"measurement": "Activity", "setting": "NCI-H460 [17]", "result": "inactive"},
      {"measurement": "Activity", "setting": "NCI-H1299 [18]", "result": "Active"},
      {"measurement": "Activity", "setting": "NCI-H446 [19]", "result": "Active"},
      {"measurement": "Activity", "setting": "NCI-H460 [20]", "result": "Active"},
      {"measurement": "Activity", "setting": "NCI-H446 [21]", "result": "Active"},
      {"measurement": "Activity", "setting": "NCI-H460 [22]", "result": "Active"},
      {"measurement": "Activity", "setting": "NCI-H446 [23]", "result": "Active"},
      {"measurement": "Activity", "setting": "NCI-H446 [24]", "result": "Active"},
      {"measurement": "Activity", "setting": "NCI-H446 [25]", "result": "Active"},
      {"measurement": "Activity", "setting": "NCI-H1299 [26]", "result": "Active"},
      {"measurement": "Activity", "setting": "[27]", "result": "Active"},
      {"measurement": "Activity", "setting": "Homo sapiens [28]", "result": "Active"},
      {"measurement": "Activity", "setting": "[29]", "result": "Active"},
      {"measurement": "Activity", "setting": "[30]", "result": "Active"},
      {"measurement": "Activity", "setting": "[31]", "result": "Active"},
      {"measurement": "Activity", "setting": "[32]", "result": "Active"},
      {"measurement": "Activity", "setting": "Homo sapiens [33]", "result": "Active"},
      {"measurement": "Activity", "setting": "[34]", "result": "Active"},
      {"measurement": "Activity", "setting": "NCI-H446 [35]", "result": "inactive"},
      {"measurement": "Activity", "setting": "NCI-H446 [36]", "result": "inactive"}
    ]}
  ]
}
